In ChEMBL document CHEMBL3885861, “Open TG-GATES”:

Species on record: Rattus norvegicus
Assay: Open TG-GATES - Regimen: Single
Type: toxicity, organism-based, Sprague-Dawley
Set-up: regimen Single, gender Male, age 6 weeks
Conditions: in vivo, ip, 450 mg/kg, route intraperitoneal injection, dose level Middle; for APTT / Bas / Eos / Fbg / Hb / Ht / Lym / MCH / MCHC / MCV / Mono / Neu / PT / Plat / RBC / Ret / WBC: tissue Blood; for KIDNEY_L / KIDNEY_R / KIDNEY_TOTAL: tissue Kidney; for LIVER: tissue Liver; for A/G / ALP / ALT / AST / BUN / CRE / Ca / Cl / DBIL / GLC / IP / K / LDH / Na / PL / RALB / TBIL / TC / TG / TP / gamma-GTP: tissue Plasma

In the case of `CCCCS(=N)(=O)CCC(N)C(=O)O` (configuration not stated) [BUTHIONINE SULFOXIMINE], the TERMINAL_BW (3 h) is reported as 218.6 g, the APTT (3 h) is reported as 16.6 s and the Bas (3 h) is reported as 0%. The Eos (3 h) was 0.8%, the Fbg (3 h) was 216.4 mg/dL and the Hb (3 h) was 13.3 g/dL. For the same molecule, the Ht (3 h) was 39.8%, the Lym (3 h) was 69% and the MCH (3 h) was 21.9 pg. The MCHC (3 h) was 33.3%, the MCV (3 h) was 65.7 fL and the Mono (3 h) was 7.8%. The Neu (3 h) was 22.2%, the PT (3 h) was 12.1 s and the Plat (3 h) was 112.2 x10_4/uL. The RBC (3 h) was 606.8 x10_4/ul, the Ret (3 h) was 8.5% and the WBC (3 h) was 79.6 x10_2/uL. For the same molecule, the KIDNEY_L (3 h) was 1 g, the KIDNEY_R (3 h) was 1 g and the KIDNEY_TOTAL (3 h) was 2 g. For the same molecule, the LIVER (3 h) was 10.2 g, the A/G (3 h) was 2.1 and the ALP (3 h) was 794 IU/L. The ALT (3 h) was 42.6 IU/L, the AST (3 h) was 72 IU/L and the BUN (3 h) was 14 mg/dL. It also gave a CRE (3 h) of 0.5 mg/dL, a Ca (3 h) of 11 mg/dL and a Cl (3 h) of 104 meq/L. It also gave a DBIL (3 h) of 0.062 mg/dL, a GLC (3 h) of 191.2 mg/dL and an IP (3 h) of 10.5 mg/dL. For the same molecule, the K (3 h) was 4.5 meq/L, the LDH (3 h) was 93 IU/L and the Na (3 h) was 140.2 meq/L. The PL (3 h) was 137.4 mg/dL, the RALB (3 h) was 3.7 g/dL and the TBIL (3 h) was 0.3 mg/dL. The TC (3 h) was 71.4 mg/dL, the TG (3 h) was 62.8 mg/dL and the TP (3 h) was 5.5 g/dL. For the same molecule, the gamma-GTP (3 h) was 1.8 IU/L, the TERMINAL_BW (6 h) was 217.2 g and the APTT (6 h) was 16.6 s. The Bas (6 h) was 0%, the Eos (6 h) was 0.8% and the Fbg (6 h) was 221.2 mg/dL. It also gave a Hb (6 h) of 13.4 g/dL, a Ht (6 h) of 40% and a Lym (6 h) of 57.6%. It also gave an MCH (6 h) of 22 pg, an MCHC (6 h) of 33.5% and an MCV (6 h) of 65.6 fL. For the same molecule, the Mono (6 h) was 4.6%, the Neu (6 h) was 37.2% and the PT (6 h) was 11 s. For the same molecule, the Plat (6 h) was 108.9 x10_4/uL, the RBC (6 h) was 609.8 x10_4/ul and the Ret (6 h) was 8.3%. It also gave a WBC (6 h) of 96.1 x10_2/uL, a KIDNEY_L (6 h) of 1 g and a KIDNEY_R (6 h) of 1 g. It also gave a KIDNEY_TOTAL (6 h) of 2 g, an LIVER (6 h) of 9.4 g and an A/G (6 h) of 2. The ALP (6 h) was 837.2 IU/L, the ALT (6 h) was 32 IU/L and the AST (6 h) was 68.8 IU/L. The BUN (6 h) was 11.4 mg/dL, the CRE (6 h) was 0.7 mg/dL and the Ca (6 h) was 10.8 mg/dL. For the same molecule, the Cl (6 h) was 104.8 meq/L, the DBIL (6 h) was 0.016 mg/dL and the GLC (6 h) was 193.2 mg/dL. The IP (6 h) was 10 mg/dL, the K (6 h) was 4.6 meq/L and the LDH (6 h) was 100.6 IU/L. The Na (6 h) was 140.4 meq/L, the PL (6 h) was 129.8 mg/dL and the RALB (6 h) was 3.5 g/dL. The TBIL (6 h) was 0.3 mg/dL, the TC (6 h) was 73.2 mg/dL and the TG (6 h) was 43.2 mg/dL. It also gave a TP (6 h) of 5.3 g/dL, a gamma-GTP (6 h) of 1.2 IU/L and a TERMINAL_BW (9 h) of 210.3 g. It also gave an APTT (9 h) of 17 s, a Bas (9 h) of 0% and an Eos (9 h) of 0.8%. It also gave a Fbg (9 h) of 253 mg/dL, a Hb (9 h) of 13.3 g/dL and a Ht (9 h) of 40%. For the same molecule, the Lym (9 h) was 63.2%, the MCH (9 h) was 21.4 pg and the MCHC (9 h) was 33.2%. For the same molecule, the MCV (9 h) was 64.5 fL, the Mono (9 h) was 3.8% and the Neu (9 h) was 32.2%. It also gave a PT (9 h) of 11 s, a Plat (9 h) of 113.1 x10_4/uL and an RBC (9 h) of 620 x10_4/ul. For the same molecule, the Ret (9 h) was 8.4%, the WBC (9 h) was 93.4 x10_2/uL and the KIDNEY_L (9 h) was 1 g. It also gave a KIDNEY_R (9 h) of 1 g, a KIDNEY_TOTAL (9 h) of 1.9 g and an LIVER (9 h) of 8.4 g. It also gave an A/G (9 h) of 2.1, an ALP (9 h) of 759.2 IU/L and an ALT (9 h) of 31.2 IU/L. It also gave an AST (9 h) of 61 IU/L, a BUN (9 h) of 11.8 mg/dL and a CRE (9 h) of 0.6 mg/dL. The Ca (9 h) was 11 mg/dL, the Cl (9 h) was 107 meq/L and the DBIL (9 h) was 0.01 mg/dL. The GLC (9 h) was 196.2 mg/dL, the IP (9 h) was 9.6 mg/dL and the K (9 h) was 4.8 meq/L. The LDH (9 h) was 79.4 IU/L, the Na (9 h) was 139.2 meq/L and the PL (9 h) was 144.2 mg/dL. The RALB (9 h) was 3.7 g/dL, the TBIL (9 h) was 0.3 mg/dL and the TC (9 h) was 84.4 mg/dL. The TG (9 h) was 25 mg/dL, the TP (9 h) was 5.5 g/dL and the gamma-GTP (9 h) was 1.2 IU/L. It also gave a TERMINAL_BW (24 h) of 229.8 g, an APTT (24 h) of 16.6 s and a Bas (24 h) of 0%. The Eos (24 h) was 1.2%, the Fbg (24 h) was 254 mg/dL and the Hb (24 h) was 13.2 g/dL. The Ht (24 h) was 39.6%, the Lym (24 h) was 70.8% and the MCH (24 h) was 21.4 pg. For the same molecule, the MCHC (24 h) was 33.2%, the MCV (24 h) was 64.4 fL and the Mono (24 h) was 9.4%. The Neu (24 h) was 18.8%, the PT (24 h) was 11.5 s and the Plat (24 h) was 126.4 x10_4/uL. For the same molecule, the RBC (24 h) was 616.6 x10_4/ul, the Ret (24 h) was 8.8% and the WBC (24 h) was 85.5 x10_2/uL. It also gave a KIDNEY_L (24 h) of 1 g, a KIDNEY_R (24 h) of 1.1 g and a KIDNEY_TOTAL (24 h) of 2.1 g. It also gave an LIVER (24 h) of 11.1 g, an A/G (24 h) of 1.8 and an ALP (24 h) of 1015.4 IU/L. It also gave an ALT (24 h) of 30.2 IU/L, an AST (24 h) of 60 IU/L and a BUN (24 h) of 19.2 mg/dL. It also gave a CRE (24 h) of 0.5 mg/dL, a Ca (24 h) of 11.1 mg/dL and a Cl (24 h) of 104.6 meq/L. It also gave a DBIL (24 h) of 0.008 mg/dL, a GLC (24 h) of 196.6 mg/dL and an IP (24 h) of 8.3 mg/dL. For the same molecule, the K (24 h) was 4.4 meq/L, the LDH (24 h) was 98 IU/L and the Na (24 h) was 140 meq/L. It also gave a PL (24 h) of 149.4 mg/dL, an RALB (24 h) of 3.7 g/dL and a TBIL (24 h) of 0.3 mg/dL. For the same molecule, the TC (24 h) was 80.6 mg/dL, the TG (24 h) was 95.2 mg/dL and the TP (24 h) was 5.8 g/dL. For the same molecule, the gamma-GTP (24 h) was 1.6 IU/L.
